Broadly, the MIC is the lowest concentration found to suppress growth. High values mean a less susceptible organism, low ones a more susceptible organism.

What all share (format): functional
Assay [1] concerns Mycobacterium tuberculosis. Briefly: Antimycobacterial activity against isoniazid resistant Mycobacterium tuberculosis measured after 7 days by resazurin microtiter assay. To be noted: 168 h. In general terms: Resazurin is reduced to fluorescent resorufin, in cell work by metabolically active cells.
Assay [2] concerns Mycobacterium tuberculosis. Description: Antimycobacterial activity against isoniazid resistant Mycobacterium tuberculosis H37Rv ATCC 27294 measured after 7 days by resazurin microtiter assay. To be noted: H37Rv ATCC 27294, 168 h.
Assay [3] deals with Mycobacterium tuberculosis. Description: Antimycobacterial activity against isoniazid resistant Mycobacterium tuberculosis ATCC 35822 after 7 days by resazurin microtiter assay. The conditions noted are these: ATCC 35822, 168 h.

≈ marks a conversion by molar mass, not a printed value. Where only a bound is given, the exact number is not on record here.

As to `CC1(C)OC2=C(CC1Br)C(=O)C(=O)c1ccccc12` (stereo not drawn), the MIC in assay [1] amounted to 3.12 µg/mL (≈ 9.71 µM); in assay [2], 6.25 µg/mL (≈ 19.5 µM); in assay [3] it was 6.25 µg/mL (≈ 19.5 µM).

Consider `CC1(C)OC2=C(C(=O)C(=O)c3ccccc32)C1Nc1ccccc1` (stereo not drawn), for which the MIC in assay [1] came to 6.25 µg/mL (≈ 19.6 µM); in assay [2], 3.12 µg/mL (≈ 9.77 µM); in assay [3], 3.12 µg/mL (≈ 9.77 µM).

For the compound `O=C1C(=O)c2ccccc2C2=C1CC(Cn1cc(-c3ccccc3)nn1)O2` (stereo not drawn), the MIC in assay [1] is 25 µg/mL (≈ 70 µM); in assay [2], 12.5 µg/mL (≈ 35 µM); in assay [3], 25 µg/mL (≈ 70 µM).

Regarding `CC1CC2=C(O1)c1ccccc1/C(=N/NC(=O)c1ccncc1)C2=O` (stereo not drawn), the MIC in assay [1] was 25 µg/mL (≈ 75 µM); in assay [2], 12.5 µg/mL (≈ 37.5 µM); in assay [3], 12.5 µg/mL (≈ 37.5 µM).

As to `CC1(C)OC2=C(CC1I)C(=O)C(=O)c1ccccc12` (stereo not drawn), the MIC in assay [1] was determined as 6.25 µg/mL (≈ 17 µM); in assay [2], 3.12 µg/mL (≈ 8.47 µM); in assay [3], 3.12 µg/mL (≈ 8.47 µM).

For `CC1(C)OC2=C(C(=O)/C(=N\NC(=O)c3ccncc3)c3ccccc32)[C@H](n2cc(-c3ccccc3)nn2)[C@H]1Br`, the MIC is more than 200 µg/mL in assay [1], 200 µg/mL (≈ 343 µM) in assay [2] and 200 µg/mL (≈ 343 µM) in assay [3].

Consider `CC1(C)CC2=C(O1)c1ccccc1/C(=N/NC(=O)c1ccncc1)C2=O`, for which the MIC in assay [1] turned out to be 6.25 µg/mL (≈ 18 µM); in assay [2] it was 0.78 µg/mL (≈ 2.25 µM); in assay [3], 50 µg/mL (≈ 144 µM).

For the compound `CC1(C)OC2=C(CC1Br)C(=O)/C(=N\NC(=O)c1ccncc1)c1ccccc12` (stereo not drawn), the MIC in assay [1], in assay [2] and in assay [3] was 12.5 µg/mL (≈ 28.4 µM) each time.

Regarding `CC1(C)OC2=C(C(=O)/C(=N\NC(=O)c3ccncc3)c3ccccc32)C1n1cc(-c2ccccc2)nn1` (stereo not drawn), the MIC in assay [1], in assay [2] and in assay [3] was 12.5 µg/mL (≈ 25.5 µM) in each case.

Turning to `CC1(C)OC2=C(C(=O)C(=O)c3ccccc32)C1n1cc(-c2ccccc2)nn1` (stereo not drawn), the results for the MIC in assay [1], in assay [2] and in assay [3] were 25 µg/mL (≈ 67.3 µM), 6.25 µg/mL (≈ 16.8 µM) and 25 µg/mL (≈ 67.3 µM), respectively.

Take `O=C1C2=C(OC(Cn3cc(-c4ccccc4)nn3)C2)c2ccccc2/C1=N/NC(=O)c1ccncc1` (stereo not drawn): the MIC in assay [1] turned out to be 50 µg/mL (≈ 105 µM); in assay [2], 12.5 µg/mL (≈ 26.2 µM); in assay [3] it was 50 µg/mL (≈ 105 µM).

Take `CC1(C)OC2=C(C(=O)/C(=N\NC(=O)c3ccncc3)c3ccccc32)C1Nc1ccccc1` (stereo not drawn): the figures for the MIC in assay [1], in assay [2] and in assay [3] were 25 µg/mL (≈ 57 µM), 25 µg/mL (≈ 57 µM) and 100 µg/mL (≈ 228 µM), respectively.

`CC1(C)OC2=C(C(=O)/C(=N\NC(=O)c3ccncc3)c3ccccc32)C1O` (stereo not drawn): the MIC in assay [1] was determined as 100 µg/mL (≈ 275 µM); in assay [2], 6.25 µg/mL (≈ 17.2 µM); in assay [3] it was 200 µg/mL (≈ 550 µM).

As for `CC1(C)CC2=C(O1)/C(=N\NC(=O)c1ccncc1)c1ccccc1C2=O`, the MIC in assay [1] stood at 200 µg/mL (≈ 576 µM); in assay [2] it was 25 µg/mL (≈ 72 µM); in assay [3], 100 µg/mL (≈ 288 µM).

Turning to `CC1(C)CCC2=C(O1)c1ccccc1/C(=N/NC(=O)c1ccncc1)C2=O`, the values for the MIC in assay [1], in assay [2] and in assay [3] were 6.25 µg/mL (≈ 17.3 µM), 0.78 µg/mL (≈ 2.16 µM) and 50 µg/mL (≈ 138 µM), respectively.

With `CC1(C)OC2=C(CC1I)C(=O)/C(=N\NC(=O)c1ccncc1)c1ccccc12` (stereo not drawn), the MIC in assay [1], in assay [2] and in assay [3] was 100 µg/mL (≈ 205 µM) each time.

`CC1(C)CCC2=C(O1)/C(=N\NC(=O)c1ccncc1)c1ccccc1C2=O`: the MIC in assay [1], in assay [2] and in assay [3] was more than 200 µg/mL each time.

As for `CC1(C)OC2=C(C(=O)C(=O)c3ccccc32)C1O` (stereo not drawn), the MIC in assay [1] is 25 µg/mL (≈ 102 µM); in assay [2], 12.5 µg/mL (≈ 51.2 µM); in assay [3] it was 25 µg/mL (≈ 102 µM).

As for `CC1(C)CC2=C(O1)C(=O)c1ccccc1C2=O`, the MIC in assay [1] was found to be 25 µg/mL (≈ 110 µM); in assay [2] it was 12.5 µg/mL (≈ 54.8 µM); in assay [3] it was 25 µg/mL (≈ 110 µM).

`CC1(C)OC2=C(C(=O)C(=O)c3ccccc32)[C@H](n2cc(-c3ccccc3)nn2)[C@H]1Br` (racemic): the MIC stood at 12.5 µg/mL (≈ 26.9 µM) in assay [1], 1.56 µg/mL (≈ 3.36 µM) in assay [2] and 6.25 µg/mL (≈ 13.5 µM) in assay [3].

The compound `CC1(C)CCC2=C(O1)C(=O)c1ccccc1C2=O` [ALPHA-LAPACHONE] returned an MIC in assay [2] of 103 µg/mL (≈ 426 µM).

`NNC(=O)c1ccncc1` [ISONIAZID]: the MIC in assay [1] is 0.25 µg/mL (≈ 1.82 µM); in assay [2] it was 0.03 µg/mL (≈ 0.219 µM); in assay [3] it was 2 µg/mL (≈ 14.6 µM).

Take `CC1(C)CCC2=C(O1)c1ccccc1C(=O)C2=O` [LAPACHONE]: the MIC was 6.25 µg/mL (≈ 25.8 µM) in assay [1], 1.56 to 6.25 µg/mL (≈ 6.44 to 25.8 µM) in assay [2] and 3.12 µg/mL (≈ 12.9 µM) in assay [3].

Turning to `CC1(C)CC2=C(O1)c1ccccc1C(=O)C2=O` [NOR-BETA-LAPACHONE], the MIC turned out to be 6.25 µg/mL (≈ 27.4 µM) in assay [1], 3.12 µg/mL (≈ 13.7 µM) in assay [2] and 12.5 µg/mL (≈ 54.8 µM) in assay [3].

As for `CO[C@H]1/C=C/O[C@@]2(C)Oc3c(C)c(O)c4c(O)c(c(/C=N/N5CCN(C)CC5)c(O)c4c3C2=O)NC(=O)/C(C)=C\C=C\[C@H](C)[C@H](O)[C@@H](C)[C@@H](O)[C@@H](C)[C@H](OC(C)=O)[C@@H]1C` [RIFAMPIN], the MIC in assay [1] is more than 8 µg/mL; in assay [2], not above 0.03 µg/mL; in assay [3], not above 0.03 µg/mL.
